We go through four compounds from paper PMC12664493, “Asparagine endopeptidase (AEP) inhibitor formulation via zein-based nanoparticle improves the therapeutic efficacy toward Alzheimer's disease” (Neurotherapeutics, 2025).

Molecules are shown by their SMILES. Read-outs that look alike come from different tables or passages of the source.

The target of data set [1] is T1, BCRP (Homo sapiens, UniProt Q9UNQ0).
T1 construct: endogenous in cells; host or cells: Caco-2
T1 sequence (Q9UNQ0 1-655): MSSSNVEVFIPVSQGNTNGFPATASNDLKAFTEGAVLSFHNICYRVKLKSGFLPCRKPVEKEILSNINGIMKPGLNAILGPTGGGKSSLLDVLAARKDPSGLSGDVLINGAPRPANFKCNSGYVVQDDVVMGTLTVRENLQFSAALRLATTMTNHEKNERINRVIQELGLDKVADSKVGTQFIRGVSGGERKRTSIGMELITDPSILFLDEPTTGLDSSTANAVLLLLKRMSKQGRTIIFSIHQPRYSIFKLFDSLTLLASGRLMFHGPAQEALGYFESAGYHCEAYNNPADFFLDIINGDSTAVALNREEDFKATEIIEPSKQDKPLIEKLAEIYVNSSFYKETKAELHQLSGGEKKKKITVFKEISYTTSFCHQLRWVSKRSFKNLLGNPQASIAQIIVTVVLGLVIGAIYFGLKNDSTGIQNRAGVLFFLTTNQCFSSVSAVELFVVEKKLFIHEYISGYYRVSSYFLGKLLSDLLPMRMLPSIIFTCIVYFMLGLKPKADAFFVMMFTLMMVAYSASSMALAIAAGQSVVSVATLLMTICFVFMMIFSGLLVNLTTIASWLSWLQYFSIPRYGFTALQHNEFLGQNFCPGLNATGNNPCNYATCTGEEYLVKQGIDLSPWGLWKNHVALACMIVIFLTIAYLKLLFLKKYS
The data set can be described thus: Caco-2-BCRP assay with and without Ko143. Particulars: human, Caco-2, Ko143 0 μM. The format is in vitro ADME.

The target in data set [2] is T2, AEP (Rattus norvegicus, UniProt Q9R0J8).
T2 construct: endogenous in cells; host or cells: primary rat cortical neurons
T2 sequence (Q9R0J8 18-435): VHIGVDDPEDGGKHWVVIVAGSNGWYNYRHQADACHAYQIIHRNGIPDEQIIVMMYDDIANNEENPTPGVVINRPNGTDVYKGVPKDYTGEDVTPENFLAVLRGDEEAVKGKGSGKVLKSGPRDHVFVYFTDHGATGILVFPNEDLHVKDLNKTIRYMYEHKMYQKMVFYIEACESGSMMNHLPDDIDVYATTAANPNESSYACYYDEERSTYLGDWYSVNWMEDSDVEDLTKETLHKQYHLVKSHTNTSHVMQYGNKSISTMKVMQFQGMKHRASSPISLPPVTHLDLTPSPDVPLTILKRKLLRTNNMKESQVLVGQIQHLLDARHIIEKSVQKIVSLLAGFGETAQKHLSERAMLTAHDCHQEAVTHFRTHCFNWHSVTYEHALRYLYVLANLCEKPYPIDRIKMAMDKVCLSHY
The data set can be described thus: AEP inhibition in cultured primary neurons. The format is cell-based.

Data set [3] is described as follows: Solubility (pH 7.4, PBS). The format is physicochemical.
Data set [4] can be described thus: Stability in human liver microsomes. The format is in vitro ADME. Particulars: for half-life: read-out: Stability-Microsomes T1/2.
Data set [5] in a line: Stability in mouse liver microsomes. The format is in vitro ADME. Particulars: for half-life: read-out: Stability-Microsomes T1/2. Background: Liver microsomes are vesicles of endoplasmic reticulum, rich in cytochrome P450 enzymes.
Data set [6] is described as follows: Stability in human hepatocytes. The format is in vitro ADME. Conditions: for half-life: read-out: Stability-Hepatocytes T1/2.
A short description of data set [7]: Stability in rat hepatocytes. The format is in vitro ADME.
Data set [8] can be described thus: Stability in human plasma. The format is in vitro ADME. Particulars: read-out: Stability-Plasma T1/2.
Data set [9] is described as follows: Stability in mouse plasma. The format is in vitro ADME. Particulars: read-out: Stability-Plasma T1/2.
Data set [10] in a line: Plasma protein binding, human. The format is in vitro ADME.
Data set [11] in a line: Plasma protein binding, mouse. The format is in vitro ADME.
Data set [12] can be described thus: PAMPA-BBB permeability assay. Particulars: read-out: Permeability-PAMPA-BBB Pe. The format is in vitro ADME.
Data set [13] in a line: Caco-2 permeability. The format is in vitro ADME. Conditions: human; for Papp A→B: first value of the cell.
Data set [14] has as its target T3, P-glycoprotein (MDR1) (Homo sapiens, UniProt P08183).
T3 construct: expressed in transfected cells; host or cells: MDCKII
Description: MDR1-MDCKII permeability assay (P-glycoprotein efflux). The format is in vitro ADME. Particulars: dog, MDCK-MDR1; for Papp A→B: first value in brackets; for Papp B→A: second value in brackets.

Data set [15] has as its target hERG K+ channel (Homo sapiens, UniProt Q12809). Description: hERG inhibition assay.
Data set [16] in a line: Plasma and brain concentrations after acute oral treatment of 3xTg mice. Particulars: both sexes, mouse, plasma, 7.5 mg/kg, P.O. 7.5 mg/kg, read-out: Concentration in plasma, Serum Mean. The format is in vivo. An excerpt: Blood and brain tissues were collected at 0, 0.08, 0.25, 0.5, 1, 2, 4, and 8 h post-administration.
In data set [17] the target is T4, AEP (Mus musculus, UniProt O89017).
T4 construct: from tissue; host or cells: brain / hippocampus of 3xTg mice
T4 sequence (O89017 18-435): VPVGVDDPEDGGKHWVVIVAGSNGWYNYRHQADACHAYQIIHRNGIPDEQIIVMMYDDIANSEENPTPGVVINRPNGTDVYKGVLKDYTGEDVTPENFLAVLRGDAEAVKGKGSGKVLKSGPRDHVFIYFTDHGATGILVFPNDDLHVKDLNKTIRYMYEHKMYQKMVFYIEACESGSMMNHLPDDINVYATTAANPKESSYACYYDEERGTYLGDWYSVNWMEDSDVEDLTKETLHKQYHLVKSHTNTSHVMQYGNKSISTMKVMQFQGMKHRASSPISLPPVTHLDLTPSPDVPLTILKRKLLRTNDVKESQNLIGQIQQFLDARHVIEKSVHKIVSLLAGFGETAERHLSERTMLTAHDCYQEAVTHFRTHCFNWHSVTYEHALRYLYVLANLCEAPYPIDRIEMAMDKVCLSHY
The data set can be described thus: Acute PD in 3xTg mice: brain AEP enzymatic activity and immunoblotting. The format is in vivo. Conditions: 2 h. In general terms: In western blotting, separated proteins are transferred to a membrane and probed.

The target of data set [18] is T4, AEP. Description: Chronic one-month oral treatment of 3xTg mice: AEP activation and substrate cleavage. The format is in vivo. Conditions: 7.5 mg/kg P.O. daily.
The subject of data set [19] is 3xTg mice. The data set can be described thus: Y-maze test in 3xTg mice. The format is in vivo, mouse. Particulars: 7.5 mg/kg P.O. daily, one month. An excerpt: Blood and brain tissues were collected at 0, 0.08, 0.25, 0.5, 1, 2, 4, and 8 h post-administration. For acute pharmacodynamic (PD) assessments, male and female 3xTg mice received oral doses of NP-11a-isopropyl at 7.5 mg/kg or 15 mg/kg, and blood and brain samples were collected 2 h after treatment.
The Y-maze test was employed to evaluate spatial working memory and spontaneous alternation behavior, a measure of natural exploratory pattern integrity. The apparatus comprised three symmetrical opaque arms (A, B, C; 30 cm length × 8 cm width × 15 cm height) intersecting at 120° angles to form a Y-shaped configuration. Mice were habituated to the maze during a 5-min acclimatization period to minimize novelty-induced anxiety. Following habituation, spontaneous exploration was recorded for 8 min using an overhead camera, with all trials conducted under consistent low-light conditions to reduce environmental stress. EthoVision XT 12 software (Noldus, Wageningen, The Netherlands) quantified total arm entries, entry sequences, and alternation patterns (consecutive entries into three distinct arms without repetition). The maze was thoroughly cleaned with 70 % ethanol between trials to eliminate olfactory cues.

On the set-up of data set [20]: method as in PMID 38030711. Conditions: cited from earlier work.
Data set [21] addresses T5, recombinant AEP enzyme (Homo sapiens, UniProt Q99538).
T5 sequence (Q99538 18-433): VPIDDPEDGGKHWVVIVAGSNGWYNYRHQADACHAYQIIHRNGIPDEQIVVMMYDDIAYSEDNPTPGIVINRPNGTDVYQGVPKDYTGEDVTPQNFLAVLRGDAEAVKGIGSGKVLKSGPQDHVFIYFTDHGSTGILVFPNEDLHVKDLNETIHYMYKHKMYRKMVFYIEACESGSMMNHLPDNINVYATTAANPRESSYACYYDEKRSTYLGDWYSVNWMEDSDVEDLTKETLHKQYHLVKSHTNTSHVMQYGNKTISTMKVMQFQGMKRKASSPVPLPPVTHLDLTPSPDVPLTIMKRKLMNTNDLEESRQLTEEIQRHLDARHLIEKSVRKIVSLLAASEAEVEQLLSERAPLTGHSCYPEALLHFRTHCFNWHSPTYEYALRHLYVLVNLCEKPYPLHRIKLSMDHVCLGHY
The data set can be described thus: In vitro AEP enzymatic inhibition assay. The format is biochemical. Conditions: read-out: IC50 toward recombinant AEP enzyme (in vitro).
Description: AEP activity was assessed as previously described [21]. Tissue homogenates (10 ​μg protein) were incubated with 20 ​μM AEP-specific fluorogenic substrate in 200 ​μL of optimized assay buffer (20 ​mM citric acid, 60 ​mM Na2HPO4, 1 ​mM EDTA, 0.1 ​% CHAPS, 1 ​mM DTT; pH 6.0) to quantify enzymatic activity. Reactions were performed at 37 ​°C in a temperature-controlled microplate reader (BioTek Synergy HTX Multimode Reader, Agilent, California, USA). AEP-mediated cleavage of the substrate, liberating fluorescent 7-amino-4-methylcoumarin (AMC), was monitored kinetically by measuring emission at 460 ​nm (excitation: 380 ​nm) every 5 ​min over 60-min. Fluorescence values were normalized to background signal from substrate-free controls, and enzyme activity was calculated as the rate of AMC generation (RFU/min/μg protein) during the linear phase of the reaction.

A short description of data set [22]: Stability in mouse hepatocytes. The format is in vitro ADME.
Setting [23] is: aqueous buffer, pH 7.4, read-out: Solubility (pH, media).
[24] abbreviates: read-out: Stability-Hepatocytes T1/2.

T3 sequence (P08183 whole entry): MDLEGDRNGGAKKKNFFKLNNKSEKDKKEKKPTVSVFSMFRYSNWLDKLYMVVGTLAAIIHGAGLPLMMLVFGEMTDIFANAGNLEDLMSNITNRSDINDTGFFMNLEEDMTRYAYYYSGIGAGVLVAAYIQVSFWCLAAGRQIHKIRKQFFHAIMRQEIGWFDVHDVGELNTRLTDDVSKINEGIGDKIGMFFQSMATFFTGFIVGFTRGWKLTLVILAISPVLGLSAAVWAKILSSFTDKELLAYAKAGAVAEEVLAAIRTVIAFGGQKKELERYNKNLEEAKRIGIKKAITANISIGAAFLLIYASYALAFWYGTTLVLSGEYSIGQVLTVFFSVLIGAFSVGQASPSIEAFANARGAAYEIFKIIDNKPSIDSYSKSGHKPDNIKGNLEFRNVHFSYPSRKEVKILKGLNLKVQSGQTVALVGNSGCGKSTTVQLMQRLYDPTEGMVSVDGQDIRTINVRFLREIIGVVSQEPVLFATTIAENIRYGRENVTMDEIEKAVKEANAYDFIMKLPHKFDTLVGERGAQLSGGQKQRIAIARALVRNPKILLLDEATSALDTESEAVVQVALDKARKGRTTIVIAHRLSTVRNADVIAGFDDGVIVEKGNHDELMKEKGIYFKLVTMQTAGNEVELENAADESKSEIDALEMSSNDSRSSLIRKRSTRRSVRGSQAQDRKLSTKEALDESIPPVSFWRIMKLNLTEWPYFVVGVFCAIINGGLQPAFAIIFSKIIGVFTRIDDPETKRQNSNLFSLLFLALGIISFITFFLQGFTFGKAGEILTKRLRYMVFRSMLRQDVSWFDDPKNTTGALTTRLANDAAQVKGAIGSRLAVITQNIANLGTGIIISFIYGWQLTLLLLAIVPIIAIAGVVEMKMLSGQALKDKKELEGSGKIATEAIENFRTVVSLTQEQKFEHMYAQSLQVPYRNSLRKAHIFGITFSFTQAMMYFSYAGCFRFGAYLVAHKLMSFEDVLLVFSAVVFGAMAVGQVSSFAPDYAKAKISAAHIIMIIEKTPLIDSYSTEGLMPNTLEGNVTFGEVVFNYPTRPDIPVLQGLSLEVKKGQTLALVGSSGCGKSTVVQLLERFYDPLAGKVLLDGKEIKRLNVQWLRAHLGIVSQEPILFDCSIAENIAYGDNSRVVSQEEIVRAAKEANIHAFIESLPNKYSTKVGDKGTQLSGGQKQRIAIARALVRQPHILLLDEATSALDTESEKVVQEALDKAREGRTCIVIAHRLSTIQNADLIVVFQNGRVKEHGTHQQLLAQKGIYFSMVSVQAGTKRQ
Chain of hERG K+ channel (Q12809 whole entry): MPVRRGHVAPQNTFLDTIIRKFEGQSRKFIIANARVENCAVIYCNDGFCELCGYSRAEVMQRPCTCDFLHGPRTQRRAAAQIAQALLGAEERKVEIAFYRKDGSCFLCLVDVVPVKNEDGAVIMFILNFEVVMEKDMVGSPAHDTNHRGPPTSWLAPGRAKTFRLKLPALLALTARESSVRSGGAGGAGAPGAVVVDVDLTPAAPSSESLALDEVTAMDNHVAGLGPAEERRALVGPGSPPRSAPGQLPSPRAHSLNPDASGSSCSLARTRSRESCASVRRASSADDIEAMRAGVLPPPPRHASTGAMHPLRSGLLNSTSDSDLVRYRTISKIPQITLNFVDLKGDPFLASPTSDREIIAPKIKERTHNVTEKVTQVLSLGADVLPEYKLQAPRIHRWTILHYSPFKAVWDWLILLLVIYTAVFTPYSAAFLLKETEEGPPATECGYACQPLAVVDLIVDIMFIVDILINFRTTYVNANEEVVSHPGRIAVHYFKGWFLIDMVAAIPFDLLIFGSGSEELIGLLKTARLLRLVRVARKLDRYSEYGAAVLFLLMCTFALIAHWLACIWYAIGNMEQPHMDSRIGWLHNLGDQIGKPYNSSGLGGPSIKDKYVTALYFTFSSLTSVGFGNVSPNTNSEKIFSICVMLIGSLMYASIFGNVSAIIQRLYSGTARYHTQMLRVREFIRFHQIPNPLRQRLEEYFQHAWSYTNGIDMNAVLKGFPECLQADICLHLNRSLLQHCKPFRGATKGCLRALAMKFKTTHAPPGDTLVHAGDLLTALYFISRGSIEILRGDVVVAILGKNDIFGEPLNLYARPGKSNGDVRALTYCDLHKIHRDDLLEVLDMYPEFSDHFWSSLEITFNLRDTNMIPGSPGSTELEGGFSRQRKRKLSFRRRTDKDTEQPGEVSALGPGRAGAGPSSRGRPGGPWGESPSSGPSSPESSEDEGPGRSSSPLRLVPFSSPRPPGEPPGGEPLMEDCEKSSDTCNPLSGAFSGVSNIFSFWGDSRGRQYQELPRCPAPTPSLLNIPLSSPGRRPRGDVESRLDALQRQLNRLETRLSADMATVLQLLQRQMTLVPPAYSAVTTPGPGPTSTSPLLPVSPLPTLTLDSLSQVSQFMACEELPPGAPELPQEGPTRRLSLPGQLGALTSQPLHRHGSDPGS

A word on the Papp A→B: it is the apparent permeability from the apical to the basolateral side of a cell layer. The Papp B→A is the apparent permeability from the basolateral to the apical side of a cell layer. Regarding `CC(C)(C)NCC(O)COc1cccc2c1CC(O)C(O)C2` (centres unmarked) [Nadolol, reference compound], the Papp A→B in data set [1] was found to be 0.272 ×10⁻⁶ cm/s. Also, the Papp B→A in [1] was 0.679 ×10⁻⁶ cm/s. Besides, the recovery in data set [1] (read-out: Recovery (%) A→B) turned out to be 91.5%; in data set [1] (read-out: Recovery (%) B→A) it was 106%.
On to `CC(C)NCC(O)COc1cccc2ccccc12` (centres unmarked) [Propranolol, reference compound], for which, in [1], the Papp A→B is 29.3 ×10⁻⁶ cm/s and the apparent permeability from basolateral to apical (Papp B→A) was found to be 30.5 ×10⁻⁶ cm/s. The recovery in [1] (read-out: Recovery (%) A→B) came to 93.5%. In addition, the recovery in data set [1] (read-out: Recovery (%) B→A) was found to be 102%.
The term IC50 denotes the midpoint of a concentration-inhibition curve. Usually solubility stands for the dissolved amount per volume that the medium holds. What is called microsomal CLint is the rate of metabolic loss divided by the concentration. In general, hepatocyte CLint refers to a measure of how fast metabolising enzymes remove a compound, apart from limits set by blood flow. The compound `CNc1nnc(Nc2cc(CO)c(N3CCOCC3)c3nonc23)s1` [11a] displayed an IC50 in data set [2] of 45 nM. In addition, the solubility in data set [3] (setting [23]) came to 150 mg/mL. For the same compound, the microsomal CLint in [4] was 12.8 µL/min/mg; in [5] it was 19.9 µL/min/mg. For the same compound, the half-life in [4] was more than 3 h; in data set [5], 1.93 h; in data set [6] it was 5.67 h; in [7] (setting [24]), more than 8 h; in data set [8], more than 8 h; in data set [9] it was more than 8 h. Moreover, the hepatocyte CLint is 4.1 µL/min/1e6 cells in data set [6] and 3 µL/min/1e6 cells in data set [7]. The “Plasma Protein F u, plasma(%)” value amounted to 43.3% in data set [10] and 26.9% in data set [11]. For the same compound, the Papp in data set [12] came out at 1.62 ×10⁻⁶ cm/s. Also, the Papp A→B amounted to 10.6 ×10⁻⁶ cm/s in [13] and 0.78 ×10⁻⁶ cm/s in data set [14]. This compound also yielded a Papp B→A in data set [14] of 29.2 ×10⁻⁶ cm/s. Further, the “hERG IC50” value in [15] was “negative”. Besides, the concentration at 2 h in data set [16] was determined as 161 ng/mL. Besides, the “AEP enzymatic activity in the brain” value in data set [17] (acute P.O. 7.5 and 15 mg/kg, dose-dependent) was “substantially inhibited”. In addition, the “Active AEP band intensity, hippocampus immunoblotting” value in data set [17] (acute P.O.) was “reduced”. Moreover, the “AEP activation, APP N585 and Tau N368 fragmentation, hippocampus immunoblotting” value in data set [18] was “gradually reduced”. In addition, the “Cognitive function in the Y maze” value in data set [19] was “significantly improved”. Also, the “Brain Cmax” value in [20] (11a at 10 mg/kg) is listed as 27.012 ng/mL. In [20] (oral administration), the “Brain AUC” value is listed as 128.980. The “Plasma AUC” value in data set [20] (oral administration) is listed as 516.028.
For `OCc1cc(Nc2nnc(N3CCCC3)s2)c2nonc2c1N1CCOCC1` [11a-pentyl], the IC50 is 14.7 nM in [21], 55 nM in data set [2] and more than 10000 nM in data set [15]. Further, the solubility in data set [3] (setting [23]) worked out at 5.03 mg/mL; in data set [3] (pH 7.4, aqueous buffer, pH7.4, read-out: Solubility (pH, media)), 12.5 mM. The values for the microsomal CLint in data set [4] and in [5] were 45.5 µL/min/mg and 302 µL/min/mg, respectively. The half-life in data set [4] was 0.508 h; in data set [5], 0.0765 h; in data set [6], more than 0.738 h; in [22] (setting [24]) it was more than 0.81 h; in data set [8] it was more than 8 h; in data set [9] it was more than 8 h. Besides, the hepatocyte CLint in [6] was determined as 31.3 µL/min/1e6 cells; in data set [22], 28.5 µL/min/1e6 cells. In addition, the “Plasma Protein F u, plasma(%)” value amounted to 6.4% in data set [10] and 20% in data set [11]. Also, the Papp in [12] is 10.4 ×10⁻⁶ cm/s. Also, the efflux ratio in [13] worked out at 1.28; in data set [14] (third value of the cell, not given, read-out: Permeability-MDR1-MDCKII, value after the brackets (efflux ratio)) it was 42.1. Also, the Papp A→B came to 11.8 ×10⁻⁶ cm/s in data set [13] and 1.44 ×10⁻⁶ cm/s in data set [14]. The Papp B→A in data set [13] (value after the slash, head names only a-b, read-out: Permeability-Caco-2 Papp, second value of the cell (taken as b-a)) came out at 14.8 ×10⁻⁶ cm/s; in [14], 60.5 ×10⁻⁶ cm/s.
